According to PubChem BioAssay (NCI):
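Here, GI50 denotes the concentration required for 50% inhibition of growth. TGI: total growth inhibition.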

What was measured:
Assay in all cases: growth of human tumour cells (NCI), 384-well format
[1] = tested on: 786-0 renal
[2] = tested on: A498 renal
[3] = tested on: A549 NSCLC
[4] = tested on: ACHN renal
[5] = tested on: BT-549 breast
[6] = tested on: CAKI-1 renal
[7] = tested on: CCRF-CEM leukemia
[8] = tested on: COLO 205 colon
[9] = tested on: DU-145 prostate
[10] = tested on: HCC-2998 colon
[11] = tested on: HCT-116 colon
[12] = tested on: HCT-15 colon
[13] = tested on: HL-60(TB) leukemia
[14] = tested on: HOP-62 NSCLC
[15] = tested on: HOP-92 NSCLC
[16] = tested on: HT29 colon
[17] = tested on: IGROV1 ovarian
[18] = tested on: K-562 leukemia
[19] = tested on: KM12 colon
[20] = tested on: LOX IMVI melanoma
[21] = tested on: M14 melanoma
[22] = tested on: MCF7 breast
[23] = tested on: MDA-MB-231 breast
[24] = tested on: MDA-MB-435 melanoma
[25] = tested on: MDA-MB-468 breast
[26] = tested on: MOLT-4 leukemia
[27] = tested on: NCI-H226 lung
[28] = tested on: NCI-H23 lung
[29] = tested on: NCI-H322M lung
[30] = tested on: NCI-H460 NSCLC
[31] = tested on: NCI-H522 lung
[32] = tested on: NCI/ADR-RES ovarian
[33] = tested on: OVCAR-3 ovarian
[34] = tested on: OVCAR-4 ovarian
[35] = tested on: OVCAR-5 ovarian
[36] = tested on: OVCAR-8 ovarian
[37] = tested on: PC-3 prostate
[38] = tested on: RPMI-8226 leukemia
[39] = tested on: RXF 393 renal
[40] = tested on: SF-268 CNS
[41] = tested on: SF-295 CNS
[42] = tested on: SF-539 CNS
[43] = tested on: SK-MEL-2 melanoma
[44] = tested on: SK-MEL-28 melanoma
[45] = tested on: SK-MEL-5 melanoma
[46] = tested on: SK-OV-3 ovarian
[47] = tested on: SN12C renal
[48] = tested on: SNB-19 CNS
[49] = tested on: SR leukemia
[50] = tested on: SW-620 colon
[51] = tested on: T-47D breast
[52] = tested on: TK-10 renal
[53] = tested on: U251 glioblastoma
[54] = tested on: UACC-257 melanoma
[55] = tested on: UACC-62 melanoma
[56] = tested on: UO-31 renal

For `CNC(C)C(=O)N[C@H](C(=O)N1CCC[C@@H]1CN(CCc1ccccc1)C(=O)C(F)(F)F)[C@H](C)OCC#CC#CCO[C@H](C)[C@H](NC(=O)[C@H](C)NC)C(=O)N1CCC[C@H]1CN(CCc1ccccc1)C(=O)C(F)(F)F` (some centres not stated), the GI50 [1] was 1760 nM, the TGI [1] was 3160 nM and the GI50 [2] was 2070 nM. The TGI [2] was 4560 nM, the GI50 [3] was 3320 nM and the TGI [3] was 17200 nM. It also gave a GI50 [4] greater than 100000 nM, a TGI [4] greater than 100000 nM and a GI50 [5] of less than 10 nM. It also gave a TGI [5] of 2160 nM, a GI50 [6] of 6020 nM and a TGI [6] of 17700 nM. The GI50 [7] was 25.3 nM, the TGI [7] was 1430 nM and the GI50 [8] was 1690 nM. The TGI [8] was 3080 nM, the GI50 [9] was 1740 nM and the TGI [9] was 5180 nM. The GI50 [10] was 1310 nM, the TGI [10] was 2620 nM and the GI50 [11] was 1920 nM. It also gave a TGI [11] of 3350 nM, a GI50 [12] of 21300 nM and a TGI [12] greater than 100000 nM. For the same compound, the GI50 [13] was less than 10 nM, the TGI [13] was less than 10 nM and the GI50 [14] was 906 nM. It also gave a TGI [14] of 2190 nM, a GI50 [15] of 310 nM and a TGI [15] of 1780 nM. The GI50 [16] was 1690 nM, the TGI [16] was 3100 nM and the GI50 [17] was 5720 nM. It also gave a TGI [17] of 83400 nM, a GI50 [18] of 1810 nM and a TGI [18] of 3230 nM. The GI50 [19] was 1720 nM, the TGI [19] was 3130 nM and the GI50 [20] was 2060 nM. For the same compound, the TGI [20] was 3510 nM, the GI50 [21] was 1800 nM and the TGI [21] was 3210 nM. For the same compound, the GI50 [22] was 1300 nM, the TGI [22] was 2590 nM and the GI50 [23] was less than 10 nM. For the same compound, the TGI [23] was less than 10 nM, the GI50 [24] was 98.1 nM and the TGI [24] was 1940 nM. For the same compound, the GI50 [25] was less than 10 nM, the TGI [25] was 78.5 nM and the GI50 [26] was 1630 nM. For the same compound, the TGI [26] was 2990 nM, the GI50 [27] was 3390 nM and the TGI [27] was 16700 nM. It also gave a GI50 [28] of 268 nM, a TGI [28] of 7590 nM and a GI50 [29] of 5600 nM. It also gave a TGI [29] of 22700 nM, a GI50 [30] of 1680 nM and a TGI [30] of 3070 nM. The GI50 [31] was 906 nM, the TGI [31] was 2150 nM and the GI50 [32] was greater than 100000 nM. The TGI [32] was greater than 100000 nM, the GI50 [33] was 1250 nM and the TGI [33] was 2550 nM. It also gave a GI50 [34] of less than 10 nM, a TGI [34] of less than 10 nM and a GI50 [35] of 58900 nM. It also gave a TGI [35] greater than 100000 nM, a GI50 [36] of 1050 nM and a TGI [36] of 2240 nM. It also gave a GI50 [37] of 4080 nM, a TGI [37] of 13400 nM and a GI50 [38] of 617 nM. For the same compound, the TGI [38] was 1940 nM, the GI50 [39] was less than 10 nM and the TGI [39] was 62.5 nM. For the same compound, the GI50 [40] was 1740 nM, the TGI [40] was 3130 nM and the GI50 [41] was 2650 nM. The TGI [41] was 14500 nM, the GI50 [42] was 1540 nM and the TGI [42] was 2880 nM. The GI50 [43] was less than 10 nM, the TGI [43] was less than 10 nM and the GI50 [44] was 1450 nM. The TGI [44] was 2780 nM, the GI50 [45] was 149 nM and the TGI [45] was 730 nM. It also gave a GI50 [46] of less than 10 nM, a TGI [46] of 71.9 nM and a GI50 [47] of 2340 nM. It also gave a TGI [47] of 4060 nM, a GI50 [48] of 6770 nM and a TGI [48] of 21400 nM. The GI50 [49] was 342 nM, the TGI [49] was 1960 nM and the GI50 [50] was 1820 nM. For the same compound, the TGI [50] was 3240 nM, the GI50 [51] was 1600 nM and the TGI [51] was 2960 nM. For the same compound, the GI50 [52] was 2520 nM, the TGI [52] was 5600 nM and the GI50 [53] was 1710 nM. It also gave a TGI [53] of 3100 nM, a GI50 [54] of 1600 nM and a TGI [54] of 2960 nM. It also gave a GI50 [55] of 1730 nM, a TGI [55] of 3120 nM and a GI50 [56] greater than 100000 nM. It also gave a TGI [56] greater than 100000 nM.
